Assays:
CDK7/Cyclin H/MNAT1 = target: T1, CDK7/Cyclin H/MNAT1 (Homo sapiens, UniProt P50613); assay: Enzymatic assay for CDK7 (LANCE Ultra kinase assay, FRET based); format: biochemical; settings: for IC50: ATP at Km
T1 construct: purchased Invitrogen PR6749B
Procedure, shortened: (§1)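 FRET read-out: Eu-labeled anti-phospho-antibody binding a phosphorylated ULight peptide. Purified CDK–cyclin complex, ATP at Km.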

CDK2/Cyclin A = target: T2, CDK2/Cyclin A (Homo sapiens, UniProt P24941); assay: Enzymatic assay for CDK2 (LANCE Ultra kinase assay, FRET based); format: biochemical; settings: ATP at Km
T2 construct: purchased Invitrogen PV6290
Procedure, shortened: (§2)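 Compounds tested as 8 doses in 4-fold steps against CDK2/Cyclin A ([…]) or CDK5/p25 ([…]), with ATP at its Km and 68 nM ULight-MBP substrate. After 60 min at 23° C., EDTA plus Eu-labelled anti-phospho-MBP added; TR-FRET (615/665 nm) read after another 60 min.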

CDK5/p25 = target: T3, CDK5/p25 (Homo sapiens, UniProt Q00535); assay: Enzymatic assay for CDK5 (LANCE Ultra kinase assay, FRET based); format: biochemical; settings: ATP at Km
T3 construct: purchased Invitrogen PR8543B
Procedure, shortened: as §2

A2780 = A2780 viability assay (CellTiter-Glo, 72 hours); format: cell-based; settings: Homo sapiens; A2780 cells
Procedure: Human […] cell line, MV4-11_(ATCC, Cat #CRL-9591), NSCLC (Non-small cell lung cancer) cell line H460 (ATCC, Cat #HTB-177), A2780 (ECACC, Cat #93112519) and OVCAR-3(ATCC, Cat #HTB-161) were obtained from ATCC. Cells were grown in RPMI-1640 media (Invitrogen, Cat #22400-089) supplemented with 10% FBS (Invitrogen, Cat #10099141) and 1% penicillin/streptomycin (Invitrogen, Cat #15070063) and cultured at 37° C., 5% CO2 in a humidified chamber. All cell lines were routinely tested for mycoplasma.
To effect of the CDK7 inhibitor to inhibit the growth of target cancer cells, viability assay were conducted a 72 hour time period. Briefly, the candidate cell line was plated in 96 well plate at the following density of cells respectively. 1×10^4 cells/well for MV4-11, 5×10^3 for H460 and OVCAR-3, and 1×10^3 for A2780. After 24 hours, the cells were treated with various concentrations of the compound (ranging from 0.0015 uM to 10 uM). DMSO solvent without compound served as a control and final DMSO concentration lest than 0.1%. After 72 hours of incubation at 37° C., 5% CO2 incubator, cells were analyzed for the viability using the CellTiter-Glo Luminescent Cell Viability Assay (Promega, Cat #G7570). All viability assays were performed in duplicate and Luminescence was read using an Envision (Perkin Elmer, USA). Data was analyzed using XLfit software.

CDK1/Cyclin B = target: T4, CDK1/Cyclin B (Homo sapiens, UniProt P06493); assay: Enzymatic assay for CDK1 (LANCE Ultra kinase assay, FRET based); format: biochemical; settings: ATP at Km; read-out: CDK1 enzymatic activity IC50
T4 construct: purchased Invitrogen PR4768C
Procedure, shortened: as §1

T1 sequence (P50613 whole entry): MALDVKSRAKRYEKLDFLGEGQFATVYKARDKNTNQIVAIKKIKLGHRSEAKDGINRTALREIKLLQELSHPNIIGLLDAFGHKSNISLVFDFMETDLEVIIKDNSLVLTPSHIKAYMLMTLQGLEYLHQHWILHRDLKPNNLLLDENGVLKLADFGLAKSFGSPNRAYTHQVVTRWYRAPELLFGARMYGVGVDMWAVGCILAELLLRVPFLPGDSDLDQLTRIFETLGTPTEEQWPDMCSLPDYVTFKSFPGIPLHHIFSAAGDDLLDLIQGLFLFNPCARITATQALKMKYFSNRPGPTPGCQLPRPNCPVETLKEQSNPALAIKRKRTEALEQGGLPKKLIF
T1 sequence (P51946 whole entry partner): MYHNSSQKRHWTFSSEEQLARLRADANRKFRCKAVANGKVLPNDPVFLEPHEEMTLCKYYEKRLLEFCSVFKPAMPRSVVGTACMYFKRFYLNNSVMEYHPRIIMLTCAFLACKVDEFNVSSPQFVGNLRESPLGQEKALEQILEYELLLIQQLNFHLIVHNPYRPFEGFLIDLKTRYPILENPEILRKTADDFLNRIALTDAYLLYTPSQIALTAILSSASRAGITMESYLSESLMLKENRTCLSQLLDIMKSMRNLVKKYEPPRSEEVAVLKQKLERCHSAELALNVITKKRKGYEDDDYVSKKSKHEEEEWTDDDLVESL
T1 sequence (P51948 whole entry partner): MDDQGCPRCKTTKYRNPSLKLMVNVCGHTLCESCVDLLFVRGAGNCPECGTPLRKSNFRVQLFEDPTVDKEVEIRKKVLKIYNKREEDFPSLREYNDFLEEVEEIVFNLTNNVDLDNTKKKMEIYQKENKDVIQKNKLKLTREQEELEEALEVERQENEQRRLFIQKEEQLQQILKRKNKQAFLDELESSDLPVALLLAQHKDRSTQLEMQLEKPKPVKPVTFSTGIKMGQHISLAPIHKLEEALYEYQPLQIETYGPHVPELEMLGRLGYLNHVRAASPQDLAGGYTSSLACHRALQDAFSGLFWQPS
T4 sequence (P06493 whole entry): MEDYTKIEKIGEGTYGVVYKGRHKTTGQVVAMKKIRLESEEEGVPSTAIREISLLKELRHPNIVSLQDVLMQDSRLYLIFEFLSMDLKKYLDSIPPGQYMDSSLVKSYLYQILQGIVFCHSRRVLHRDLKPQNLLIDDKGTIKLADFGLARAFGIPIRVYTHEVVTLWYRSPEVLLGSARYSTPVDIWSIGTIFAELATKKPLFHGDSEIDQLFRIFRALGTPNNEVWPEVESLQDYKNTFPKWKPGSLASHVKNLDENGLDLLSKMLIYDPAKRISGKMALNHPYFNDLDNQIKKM
T4 sequence (P14635 whole entry partner): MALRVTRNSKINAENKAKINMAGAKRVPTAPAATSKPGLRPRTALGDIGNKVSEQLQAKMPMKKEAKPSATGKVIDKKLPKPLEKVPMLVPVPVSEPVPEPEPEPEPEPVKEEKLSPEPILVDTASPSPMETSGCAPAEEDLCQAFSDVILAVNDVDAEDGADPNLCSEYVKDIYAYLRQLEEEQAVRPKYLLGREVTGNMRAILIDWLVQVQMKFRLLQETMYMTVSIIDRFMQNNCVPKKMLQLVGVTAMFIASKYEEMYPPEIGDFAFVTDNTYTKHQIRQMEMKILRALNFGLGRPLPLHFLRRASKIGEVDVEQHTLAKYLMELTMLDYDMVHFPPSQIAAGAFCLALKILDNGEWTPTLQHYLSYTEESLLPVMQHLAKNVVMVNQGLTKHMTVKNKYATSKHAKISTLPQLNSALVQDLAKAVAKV
T3 sequence (Q00535 whole entry): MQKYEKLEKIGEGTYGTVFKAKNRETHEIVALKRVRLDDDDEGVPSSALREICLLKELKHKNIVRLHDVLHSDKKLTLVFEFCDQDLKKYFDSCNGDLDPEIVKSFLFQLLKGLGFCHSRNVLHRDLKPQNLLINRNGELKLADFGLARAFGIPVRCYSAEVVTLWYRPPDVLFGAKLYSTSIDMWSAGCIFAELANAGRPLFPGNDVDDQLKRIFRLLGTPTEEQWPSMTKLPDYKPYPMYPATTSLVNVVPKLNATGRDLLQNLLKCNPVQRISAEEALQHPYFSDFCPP
T3 sequence (Q15078 99-307 partner limits assumed): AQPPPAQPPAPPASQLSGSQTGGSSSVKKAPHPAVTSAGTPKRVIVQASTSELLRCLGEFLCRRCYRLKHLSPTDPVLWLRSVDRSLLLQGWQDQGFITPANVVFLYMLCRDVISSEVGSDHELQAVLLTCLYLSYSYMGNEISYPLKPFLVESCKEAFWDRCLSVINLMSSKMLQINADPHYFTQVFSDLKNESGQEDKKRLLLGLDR

Compound | IC50 (CDK7/Cyclin H/MNAT1) [nM] | CDK1/CDK7: Selectivity of CDK7 inhibition over CDK1 inhibition (CDK7/Cyclin H/MNAT1) | CDK2/CDK7: Selectivity of CDK7 inhibition over CDK2 inhibition (CDK7/Cyclin H/MNAT1) | CDK5/CDK7: Selectivity of CDK7 inhibition over CDK5 inhibition (CDK7/Cyclin H/MNAT1) | IC50 (CDK2/Cyclin A) [nM] | IC50 (CDK5/p25) [nM] | IC50 (A2780) [nM] | IC50 (CDK1/Cyclin B) [nM]
CC(C)c1cnn2c(NCc3ccccc3-c3nccc4cc(NC(=O)/C=C/CN(C)C)ccc34)nc(S(C)(=O)=O)nc12 [Compound 202] | < 100 | B (B indicates 50 < [fold] ≤ 500) | B (B indicates 50 < [fold] ≤ 500) | B (B indicates 50 < [fold] ≤ 500) | > 1000 | > 1000 | < 1000 | > 1000
C=CC(=O)N1CCc2c(ccnc2-c2ccccc2CNc2nc(OC3CCC(C)(C)NC3)nc3c(C(C)C)cnn23)C1 (stereo not shown) [Compound 203] | < 100 | A (A indicates [fold] > 500) | A (A indicates [fold] > 500) | A (A indicates [fold] > 500) | > 1000 | > 1000 | < 1000 | > 1000
CC(C)c1cnn2c(NCc3ccccc3-c3nccc4cc(NC(=O)/C=C/CN(C)C)ccc34)cc(C(F)(F)F)nc12 [Compound 204] | < 100 | A (A indicates [fold] > 500) | A (A indicates [fold] > 500) | A (A indicates [fold] > 500) | > 1000 | > 1000 | < 1000 | > 1000
C=C(Br)C(=O)Nc1ccc2c(-c3ccccc3CNc3nc(NC[C@H]4CCNC[C@@H]4O)nc4c(C(C)C)cnn34)nccc2c1 [Compound 205] | < 100 | B (B indicates 50 < [fold] ≤ 500) | B (B indicates 50 < [fold] ≤ 500) | B (B indicates 50 < [fold] ≤ 500) | > 1000 | > 1000 | < 1000 | > 1000
C=C(Cl)C(=O)Nc1ccc2c(-c3ccccc3CNc3nc(NC[C@H]4CCNC[C@@H]4O)nc4c(C(C)C)cnn34)nccc2c1 [Compound 206] | < 100 | A (A indicates [fold] > 500) | A (A indicates [fold] > 500) | A (A indicates [fold] > 500) | > 1000 | > 1000 | < 1000 | > 1000
C=C(C)C(=O)Nc1ccc2c(-c3ccccc3CNc3nc(Nc4cccnc4)nc4c(C(C)C)cnn34)nccc2c1 [Compound 207] | 100 to 1000 | B (B indicates 50 < [fold] ≤ 500) | B (B indicates 50 < [fold] ≤ 500) | B (B indicates 50 < [fold] ≤ 500) | > 1000 | > 1000 | < 1000 | > 1000
C=C(C)C(=O)Nc1ccc2c(-c3ccccc3CNc3cc(C(F)(F)F)nc4c(C(C)C)cnn34)nccc2c1 [Compound 208] | 100 to 1000 | B (B indicates 50 < [fold] ≤ 500) | B (B indicates 50 < [fold] ≤ 500) | B (B indicates 50 < [fold] ≤ 500) | > 1000 | > 1000 | 1000 to 10000 | > 1000
C=C(Cl)C(=O)Nc1ccc2c(-c3ccccc3CNc3nc(N[C@H]4CC[C@H](OC)CC4)nc4c(C(C)C)cnn34)nccc2c1 [Compound 209] | < 100 | A (A indicates [fold] > 500) | A (A indicates [fold] > 500) | A (A indicates [fold] > 500) | > 1000 | > 1000 | < 1000 | > 1000
C=CC(=O)Nc1ccc2c(-c3ccccc3CNc3nc(N4CCN(CC(F)(F)F)CC4)nc4c(C(C)C)cnn34)nccc2c1 [Compound 210] | < 100 | B (B indicates 50 < [fold] ≤ 500) | B (B indicates 50 < [fold] ≤ 500) | B (B indicates 50 < [fold] ≤ 500) | > 1000 | > 1000 | < 1000 | > 1000
C=CC(=O)Nc1ccc2c(-c3ccccc3CNc3nc(N4CCNC(C(F)(F)F)C4)nc4c(C(C)C)cnn34)nccc2c1 (stereo not shown) [Compound 211] | < 100 | A (A indicates [fold] > 500) | A (A indicates [fold] > 500) | A (A indicates [fold] > 500) | > 1000 | > 1000 | < 1000 | > 1000
C=CC(=O)Nc1ccc2c(-c3ccccc3CNc3nc(N4CCc5ncccc5C4)nc4c(C(C)C)cnn34)nccc2c1 [Compound 212] | < 100 | A (A indicates [fold] > 500) | A (A indicates [fold] > 500) | A (A indicates [fold] > 500) | > 1000 | > 1000 | < 1000 | > 1000
C=CC(=O)Nc1ccc2c(-c3cccc(C(F)(F)F)c3CNc3nc(Nc4cccnc4)nc4c(C(C)C)cnn34)nccc2c1 [Compound 213] | > 1000 | C (C indicates [fold] ≤ 50) | C (C indicates [fold] ≤ 50) | C (C indicates [fold] ≤ 50) | > 1000 | > 1000 | 1000 to 10000 | > 1000
CC(C)c1cnn2c(NCc3ccccc3-c3nccc4cc(NC(=O)/C=C/CN(C)C)ccc34)cc(N3CCNC(C(F)(F)F)C3)nc12 (stereo not shown) [Compound 214] | < 100 | A (A indicates [fold] > 500) | A (A indicates [fold] > 500) | A (A indicates [fold] > 500) | > 1000 | > 1000 | < 1000 | > 1000
C=CC(=O)Nc1ccc2c(-c3ccccc3CNc3nc(NC4CCC(C)(C)NC4)nc4c(C(F)(F)F)cnn34)nccc2c1 (stereo not shown) [Compound 215] | < 100 | A (A indicates [fold] > 500) | A (A indicates [fold] > 500) | A (A indicates [fold] > 500) | > 1000 | > 1000 | < 1000 | > 1000
